{"source": "patent US7422854B1", "about": "“Cholesterol reduction signature” (priority 2002, dated 2008)", "key": {"male Sprague-Dawley rats": {"test_system": "male Sprague-Dawley rats", "test": "Cholesterol Lowering Index: total blood cholesterol (clinical chemistry) in treated versus vehicle-treated rats", "type": "in vivo, rat", "settings": "male rats; for Chol index (fold reduction): vs vehicle", "description": "Compound dosing was based on the acute dose LD50s recorded in published reference or literature sources. […] The MTD (maximum tolerated dose) was then selected as the dose at which the animals […] 5-10% body weight during the 5-day range finding study. […] In addition, the clinical observations must show no or mild clinical signs during the whole of the range-finding study. At the next highest dose, signs and symptoms of adverse effects and exceeding those of the MTD should be seen to occur. Should these criteria not be met, the range-finding study is repeated using a modified dose range.\n(§1) After determination of the MTD and FED for a compound, each compound was dissolved in a vehicle for administration on day 1 of the study (additional daily doses were stored as frozen aliquots from this initial formulation). Each compound was administered to three individual male Sprague-Dawley rats for each of the two doses (MTD and FED) for one of four different times (0.25 day, 1 day, 3 days, and 5 days), yielding a total of up to 24 animals per compound study. Vehicle choice was based on solubility of the compound, effect of food on adsorption, and the vehicles used in the literature reports examined during the FED selection investigations, described above. Generally, the route and vehicle in which the FED was defined are used. When there was a choice of routes and vehicles, oral routes were chosen over injection routes. Many compounds, especially oncolytics, are only administerable intravenously. In such cases, the compound was administered as an intravenous formulation into the tail vein. Orally administered compounds were given dissolved in either water, 1% carboxymethycellulose (CMC) or corn oil. Intravenously and intraperitoneally administered compounds were given in 0.9% saline. Subcutaneously administered compounds were given in corn oil. Animal body weights were determined at 1 day and, where appropriate, at 4 days, before necropsy, and clinical observations were made on a daily basis. Control animals were dosed with vehicle only. Three male animals were used for each dose and time combination used for the compound treatment.\n(§2) Tissue harvest and handling: After the allocated treatment time, the tissues from the animals were harvested. […] All the tissues collected were divided to provide samples for histopathological analyses, and the remainder of each tissue was then snap-frozen. […] The following blood constituents were measured: Blood Urea Nitrogen (BUN), Creatinine (CRE), Glucose (GLU), Alanine Transaminase (ALT), Aspartate Aminotrans-ferase (AST), Alkaline Phosphatase (ALP), Total Bilirubin (TBI), Sodium (SOD), Potassium (POT), Chloride (CHL), Phosphorus (PHO), Total Protein (TPR), Albumin (ALB), Cholesterol (CHO), Creatine Phosphokinase (CPK), Lactate Dehydrogenase (LDH), Carbon Dioxide (CO2), Uric Acid (UA), and Lipase. […] The parameters were measured using a Baker 9000 blood cell analysis instrument according to the manufactures instructions. The following blood constituents were measured: Leukocyte count (WBC), Differential Leukocyte counts, Erythrocyte count (RBC), Hemoglobin concentration (HGB), Hematocrit (HCT), Mean Corpuscular Volume (MCV), Mean Corpuscular Hemoglobin (MCH), Mean Corpuscular Hemoglobin Concentration (MCC), Thrombocyte Count (PLC). Histopathology: Histopathological analyses of hematoxylin and eosin-stained tissue sections were performed and peer-reviewed by board-certified (Diplomate, American College of Veterinary Pathologists) veterinary pathologists. Preparation of Enriched mRNA: Punch Biopsies were Taken from the Frozen Tissues and were completely homogenized before being processed using the MagNA Pure robot. (Roche Diagnostics Corp., Indianapolis, Ind.) in combination with the MagNA Pure LC RNA Isolation kit II (Roche Diagnostics Corp)."}, "livers of rats": {"test_system": "livers of rats", "test": "Signature Projection Score (SPS): match of liver gene expression to the Cholesterol Reduction Signature", "type": "in vivo", "settings": "dose 10 (mg/ml), rat liver, maximum of training treatments = 100", "protocol": "as §1\nas §2, with “Corp). The amount of lysis buffer was adjusted to allow 1 ml per 50 mg for liver tissue, or 1 ml per 80 mg for all other tissues. After complete homogenization and before loading of the samples into the 32-well MagNA Pure plate, the samples were syringed 5-6 times using a 20-gauge 3-ml syringe to ensure a smooth solution for robotic processing. Tissue sample processing was performed in duplicate wells (loading 150 μl of homogenized sample and 150 μl of additional lysis buffere to each well) of the MagNA Pure LC, which is programmed to extract mRNA using oligo-dT selection technology into a final elution volume of 100 μl. Poly A(+) RNA sample concentration was performed using a standard ethanol precipitation protocol in the presence of glycogen (50 μg/ml).” for “Corp).”"}, "rat": {"test_system": "rat", "settings": "rat, 4-7 daily dosing; cited from earlier work"}}}
{"smiles": "C#C[C@]1(O)CC[C@H]2[C@@H]3CCc4cc(O)ccc4[C@H]3CC[C@@]21C", "note": "[ETHINYLESTRADIOL, (17α)-norpregna-1,3,5(10)-trien-20-yne-3,17-diol]", "values": [{"measurement": "Cholesterol Index (fold reduction)", "setting": "male Sprague-Dawley rats; Table 4, dose 10, time point 5 days", "result": 3.9, "unit": "fold reduction"}, {"measurement": "Chol index (fold reduction)", "setting": "male Sprague-Dawley rats; dose 10, time 3 days", "result": 3.65, "unit": "fold reduction"}, {"measurement": "Chol index (fold reduction)", "setting": "male Sprague-Dawley rats; dose 10, time 5 days", "result": 4.09, "unit": "fold reduction"}, {"measurement": "SPS", "setting": "livers of rats; time point 1 day", "result": 50}, {"measurement": "SPS", "setting": "livers of rats; time point 5 days", "result": 76.2}, {"measurement": "reduction in total cholesterol", "setting": "rat", "result": 89, "unit": "%"}]}
